Test results reported in patent publication US20040141995A1, “MHC class I-restricted and MHC class II-restricted EBNA1 peptides” (priority 2002, published 2004).
Where two headings read alike, the source gives them in different places.

What was measured:
Type in all cases: cell-based, human
[1] = system: M3-W1-B9 CD8+ T cell recognition of HEK293/B8/EBNA1-GFP, LCL111 and 1359mel/EBNA1-GFP target cells; assay: Effect of inhibitors on M3W1-B9 CD8+ T cell recognition of EBNA1-expressing target cells (IFN-γ release); conditions: for dose dependence of inhibition of M3-W1-B9 CD8+ T cell recognition of HEK293/B8/EBNA1-GFP target cells: different concentrations of protease inhibitors (FIG. 14C); for effect on M3W1-B9 CD8+ T cell recognition of HEK293 transfected with HLA-B8 plus EBNA1-GFP: target cells treated with inhibitor, co-cultured with T cells overnight, IFN-γ release
Protocol: (§1) HEK 293 cells co-transfected with EBNA1-GFP were treated with various concentrations of ZAL inhibitor for 10 h. After washing, cells were incubated with T cells overnight for IFN-γ release assays. Various dilutions of DMSO were used as controls. T cell activity in the absence of inhibitor was used as 100% activity.
(§2) HLA-B8 expressing HEK293/EBNA1-GFP target cells were treated with an emetine inhibitor at three concentrations for 1h. After three washings, cells were co-cultured with M3-W1-B9 CD8^+ T cells overnight for IFN-γ release assays. […] HLA-B8 positive 1359 cells with the EBNA1-P518-526 peptide after the treatment of 1359mel cells were pulsed with 3 different concentration of emetine. FIG. 13B illustrates the determination of the sensitivity of recognition of TRP2-specific CD8 T cells to the treatment with emetine. 1363mel cells were treated with 3 different concentrations of emetine. After 3 washes, the cells were co-cultured with TRP2-specific CD8 ^+ T cells. The treated cells pulsed with a TRP2 peptide were used to examine the effect of emetine on recognition of MHC class I/TRP2 complexes on the cell surface; and
(§3) Target cells were incubated with various protease inhibitors for 2 h, washed and co-cultured with CD8^+ T cells overnight for IFN-γ release assays. Solvents used to solubilize inhibitors were also used as controls. […] Target cells were treated with different concentrations of protease inhibitors. After washes, the treated cells were co-cultured with M3-W1-B9 CD8^+ T cells overnight for IFN-γ release assays.
Target cells were incubated in the absence or presence of various concentrations of inhibitors for different period of time, depending on the type of inhibitors used. The cells were then washed and counted and co-cultured with T cells overnight for IFN-γ release assays. The solvents used to dissolve the inhibitors, such as DMSO, methanol and ethanol were also used as controls.
(§4) HEK293 cells were transfected with EBNA1-GFP and HLA-B8 cDNAs, and then treated them with different concentrations of ZAL and lactacystin, specific inhibitors of proteasomes. […] To exclude the potential nonspecific effect of ZAL on T cell recognition, the effects of ZAL inhibitor were tested on melanoma-reactive TIL102-CD4^+ T cells, which recognize a MHC class II-restricted epitope on the cell surface of 102mel tumor cells, and of P3-B7 CD4^+ T cells, which recognize HLA-DP3 expressing HEK293 cells transfected with Ii-EBNA1 as target cells. […] The effects of lactacystin, another specific proteasome inhibitor, were also tested on T cell recognition.
HLA-B8 expressing HEK293/EBNA1-GFP cells were treated with different concentrations of irreversible (emetine) and reversible (puromycin and cycloheximide) protein synthesis inhibitors for 1 h. After washing to remove inhibitors, the treated cells were co-cultured with antigen-specific CD8^+ T cells. […] Since blocking protein synthesis should rapidly decrease the peptide supply required for the export of MHC class I molecules from the ER to the cell surface as well as synthesis of MHC class I molecules, the treatment of cells with emetine would decrease the overall antigen presentation by MHC class I molecules.

[2] = system: 1359mel-specific CD8+ T cell recognition of 1359mel cells
Protocol: as §3
To test whether TPCK or AEBSF affected T cell recognition of other antigens, 1359mel were treated with the same concentrations of TPCK or AEBSF as described in FIG. 14A. […] AEBSF is an irreversible, specific inhibitor of serine proteases, while TPCK is an irreversible inhibitor of chymotrypsin and many other serine and cysteine proteases.

[3] = system: P3-B7 CD4+ T cell recognition of HEK293/DP3/Ii-EBNA1 target cells; assay: Effect of inhibitors on P3-B7 CD4+ T cell recognition of EBNA1 target cells; conditions: Homo sapiens, CD4+ T cell; 1 μM emetine; read-out: inhibition of EBNA1-specific P3-B7 CD4+ T cell recognition
Protocol: as §1, §4
HLA-B8 positive 1359mel cells were pulsed with the EBNA1-P518-526 peptide after the cells were treated with different concentrations of emetine and washed. […] 1363mel cells (TRP2^+ and HLA-A2^+) were treated with different concentrations of emetine, and then tested for their ability to stimulate TRP2-specific CD8^+ T cells. […]

[4] = system: TRP2-specific CD8+ T cell recognition of 1363mel cells; assay: Effect of emetine on recognition of 1363mel cells by TRP2-specific CD8+ T cells
Protocol: as §2
HLA-B8 positive 1359mel cells were pulsed with the EBNA1-P518-526 peptide after the cells were treated with different concentrations of emetine and washed. […] 1363mel cells (TRP2^+ and HLA-A2^+) were treated with different concentrations of emetine, and then tested for their ability to stimulate TRP2-specific CD8^+ T cells. […] However, there was only 30% inhibition of T cell recognition at 1 μM emetine treatment compared with over 90% inhibition of EBNA1-specific CD8^+ T cells at the same concentration of emetine (FIG. 13A). […] On the other hand, the processing and presentation of the TRP2 and CD4^+ T cell EBNA1 epitopes are less dependent on the production of short-lived DRiPs.

Row | Structure (SMILES) | dose dependence of inhibition of M3-W1-B9 CD8+ T cell recognition of HEK293/B8/EBNA1-GFP target cells [1] | effect on M3W1-B9 CD8+ T cell recognition of HEK293 transfected with HLA-B8 plus EBNA1-GFP ([1]; washed) | inhibition of recognition of 1359mel cells by 1359mel-specific CD8+ T cells ([2]; same inhibitor concentrations as FIG. 14A) | inhibition of recognition of 1359mel cells by 1359mel-specific CD8+ T cells [2] | inhibition of M3W1-B9 CD8+ T cell recognition of HLA-B8 expressing HEK293/EBNA1-GFP target cells ([1]; 5 μM inhibitor for 1 h) | inhibition at 1 µM ([1]; Homo sapiens, T-cell, 1 h, 1 μM inhibitor for 1 h, read-out: inhibition of M3W1-B9 CD8+ T cell recognition of HLA-B8 expressing HEK293/EBNA1-GFP target cells) | effect on T cell recognition of 1359mel cells pulsed with EBNA1-P518-526 peptide after inhibitor treatment ([1]; different concentrations of emetine, washed, then peptide-pulsed) | inhibition at 1 µM [3] | effect on T cell recognition of TRP2 peptide-pulsed target cells after inhibitor treatment [4] | inhibition at 1 µM ([4]; Homo sapiens, T-cell, 1 μM emetine, read-out: inhibition of recognition of 1363mel target cells by TRP2-specific CD8+ T cells) | concentration dependence of inhibition of recognition of 1363mel target cells by TRP2-specific CD8+ T cells ([4]; different concentrations of emetine)
1 | NCCc1ccc(S(=O)(=O)F)cc1 [AEBSF] | in a dose-dependent manner | significantly blocked | No inhibition | – | – | – | – | – | – | – | –
2 | Cc1ccc(S(=O)(=O)N[C@@H](Cc2ccccc2)C(=O)CCl)cc1 [TPCK] | in a dose-dependent manner | significantly blocked | – | No inhibition | – | – | – | – | – | – | –
3 | CC[C@H]1CN2CCc3cc(OC)c(OC)cc3[C@@H]2C[C@@H]1C[C@H]1NCCc2cc(OC)c(OC)cc21 [emetine] | – | – | – | – | completely inhibited | 94% | slightly inhibited | 20% | slightly inhibited | 30% | increased with the increasing concentrations
